Where “and” joins values, the source holds several entries; their conditions need not be identical. Identical values can stand only once. Like-named read-outs stand apart in the source and are kept apart here.
Key:
[1] = target: T1, Mouse pregnane X receptor (mPXR) (Mus musculus, UniProt O54915); assay: mPXR reporter (MRP2) activity in HEK293T cells; assay type: cell-based
T1 construct: expressed in transfected cells; host or cells: HEK293T
Description: Reverse transfection assays were performed in Caco‐2 cells as previously published with the following modifications (Kublbeck et al, 2015). 3.0 × 10^4 cells per well were transfected using pSG5‐PXR plasmid (300 ng/well), β‐Gal expression plasmid (600 ng/well), and CYP3A4‐luciferase reporter (500 ng/well) (Huang et al, 2007). After 24‐h transfection using Lipofectamine® LTX ([…] of plasmid), cells were exposed to FKK5 for 24 h. Cell lysates were prepared for β‐Gal and luciferase assays as previously published (Huang et al, 2007). The data are expressed as mean ± SD RLU (relative light units from luciferase assay) normalized to β‐Gal activity in the same well. Differences were tested using 2‐way ANOVA with Tukey's multiple comparison test, and P < 0.05 was considered significant (*). Standard transient transfection assays (PXR, CAR) in HEK293T cells were performed as previously published (Huang et al, 2007).

[2] = system: pxr -/- mice; assay: PXR target gene expression in pxr -/- mice after FKK6 gavage; assay type: in vivo, mouse; settings: for Cyp3a11 fold expression / mdr1 fold expression: Fig 4e
Description: (§1) (Scheer et al, 2010) were administered 10% DMSO (n = 3) or FKK6 (n = 3) in 3 or 5 doses, with each dose interval of 12 h. Each gavage dose volume was 100 μl. 2–4 h after the dosing period, mice were sacrificed, and tissues were harvested for further analysis. The mouse studies were performed three independent times over an 18‐month period. All purchased mice were acclimatized in the Einstein vivarium for ~ 2 weeks before experiments started. […]. The room temperature was maintained at 25 ± 2°C with 55 ± 5% humidity. All studies were approved by the Institute of Animal Studies at the Albert Einstein College of Medicine, INC (IACUC # 20160706, 20160701 and preceding protocols), and specific animal protocols were also approved by additional protocols (IACUC# 20170406, 20170504) and Animal Care and Use Review Office (ACURO) of the US Army Medical Research and Materiel Command (PR160167, W81XWH‐17‐1‐0479). […]
(§2) Mouse small, large intestine and liver samples were collected and total RNAs were […]
(§3) isolated. […] Each tissue PCR was […]
(§4) repeated in quadruplicate. The expression was normalized to internal control, GAPDH. ( b,d) The histograms show mean (95 %CI) values, c, mean (SD) and two way ANOVA followed with Tukey's post hoc test. The entire experiment was repeated n = 3 for reproducibility. The data shown is one representative experiment .

[3] = system: Cyp3a11; assay: as above; assay type: in vivo, mouse; settings: pxr-/- (PXR knockout), mouse, oral, 500 μM, 5 doses (60 h), mean
Description: as §1, §2, §3, §4

[4] = target: T2, wild-type PXR.1 (Homo sapiens, UniProt O75469); assay: PXR luciferase reporter assay in HEK293T cells, wild-type PXR.1; assay type: cell-based; settings: 10 μM, replicate wells
T2 construct: expressed in transfected cells; host or cells: HEK293T
T2 sequence (O75469 whole entry): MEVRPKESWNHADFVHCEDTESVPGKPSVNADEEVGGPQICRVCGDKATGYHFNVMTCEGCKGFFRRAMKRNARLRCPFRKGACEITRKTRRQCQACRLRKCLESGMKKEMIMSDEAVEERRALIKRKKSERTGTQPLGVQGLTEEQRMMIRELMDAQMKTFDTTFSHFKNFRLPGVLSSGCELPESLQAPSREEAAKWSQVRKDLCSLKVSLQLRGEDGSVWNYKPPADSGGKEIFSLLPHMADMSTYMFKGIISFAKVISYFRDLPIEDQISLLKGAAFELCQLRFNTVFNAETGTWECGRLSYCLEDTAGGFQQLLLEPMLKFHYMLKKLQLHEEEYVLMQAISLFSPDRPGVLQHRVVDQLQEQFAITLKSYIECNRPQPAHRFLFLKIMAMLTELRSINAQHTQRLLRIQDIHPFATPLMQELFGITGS
Description: After 24‐h transfection using Lipofectamine® LTX ([…] of plasmid), cells were exposed to FKK5 for 24 h. […] The data are expressed as mean ± SD RLU (relative light units from luciferase assay) normalized to β‐Gal activity in the same well. Differences were tested using 2‐way ANOVA with Tukey's multiple comparison test, and P < 0.05 was considered significant (*).

[5] = system: mdr1; assay: PXR target gene expression in hPXR mice (mice expressing the human PXR gene) after FKK6 gavage; assay type: in vivo, mouse; settings: both sexes, C57BL/6-Nr1i2tm1(NR1I2)Arte (hPXR mice), mouse, 500 μM, 5 doses (60 h), individual mice
Description: as §1, §2, §3, §4

[6] = system: Cyp3a11; assay: as above; assay type: in vivo, mouse; settings: both sexes, C57BL/6-Nr1i2tm1(NR1I2)Arte (hPXR mice), mouse, 500 μM, 5 doses (60 h), individual mice
Description: as §1, §2, §3, §4

[7] = system: hPXR mice; assay: as above; assay type: in vivo, mouse; settings: for mdr1 fold expression / Cyp3a11 fold expression: Fig 4f
Description: as §1, §2, §3, §4

[8] = 500 μM, 5 doses (60 h), individual mice

T1 sequence (O54915 whole entry): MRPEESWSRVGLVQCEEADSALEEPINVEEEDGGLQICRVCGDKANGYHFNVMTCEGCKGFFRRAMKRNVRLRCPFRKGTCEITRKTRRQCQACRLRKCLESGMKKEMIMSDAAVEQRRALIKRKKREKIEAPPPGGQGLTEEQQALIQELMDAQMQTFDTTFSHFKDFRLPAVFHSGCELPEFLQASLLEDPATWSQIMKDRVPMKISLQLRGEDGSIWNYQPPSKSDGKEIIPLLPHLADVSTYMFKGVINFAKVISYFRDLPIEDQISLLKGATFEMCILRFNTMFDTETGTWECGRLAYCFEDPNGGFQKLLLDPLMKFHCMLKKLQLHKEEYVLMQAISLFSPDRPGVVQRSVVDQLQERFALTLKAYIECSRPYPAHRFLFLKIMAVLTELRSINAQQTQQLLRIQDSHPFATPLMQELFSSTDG

## C#CCC(O)(c1ccncc1)c1cc2ccccc2n1S(=O)(=O)c1ccccc1 (stereo not shown) [FKK6]
[1]
  mouse PXR activation: did not significantly activate
[2]; 36 h and 60 h
  PXR target gene (mdr1) expression across organs: no effect
[2]; Large Intestine
  Cyp3a11 fold expression: 0.69 fold and 0.64 fold and 0.66 fold
  mdr1 fold expression: 0.87 fold and 0.67 fold and 0.93 fold
[2]; Liver
  Cyp3a11 fold expression: 0.84 fold and 1.18 fold and 1.42 fold
[2]; Small Intestine
  Cyp3a11 fold expression: 0.98 fold and 0.96 fold and 1.09 fold
  mdr1 fold expression: 0.52 fold and 0.37 fold and 0.63 fold
[2]; mouse, in vivo
  target gene expression levels (cyp3a11, mdr1) decrease vs DMSO: ≤ 1.5 fold
[3]; large intestine, × DMSO, read-out: Cyp3a11 fold induction, Large Intestine
  fold induction at 60 h, 500 µM: 0.36
[3]; liver, read-out: Cyp3a11 fold induction, Liver
  fold induction at 60 h, 500 µM: 1.54
[3]; small intestine, × DMSO, read-out: Cyp3a11 fold induction, Small Intestine
  fold induction at 60 h, 500 µM: 0.25
[4]
  PXR reporter activity, RLU/B-Gal: 49029.5 RLU/B-Gal and 34153.4 RLU/B-Gal and 41512.1 RLU/B-Gal and 34385.8 RLU/B-Gal
[5]; in vivo, read-out: mdr1 fold induction, Large Intestine
  fold induction at 60 h, 500 µM: 1.85
[5]; large intestine, oral, read-out: mdr1 fold induction, Large Intestine
  fold induction at 60 h, 500 µM: 1.96
[5]; small intestine, oral, read-out: mdr1 fold induction, Small Intestine
  fold induction at 60 h, 500 µM: 1.84
[6]; in vivo, read-out: Cyp3a11 fold induction, Liver
  fold induction at 60 h, 500 µM: 1.81
[6]; in vivo, read-out: Cyp3a11 fold induction, Small Intestine
  fold induction at 60 h, 500 µM: 1.85
[6]; large intestine, oral, read-out: Cyp3a11 fold induction, Large Intestine
  fold induction at 60 h, 500 µM: 0.87
[6]; liver, oral, read-out: Cyp3a11 fold induction, Liver
  fold induction at 60 h, 500 µM: 0.75
[6]; small intestine, oral, read-out: Cyp3a11 fold induction, Small Intestine
  fold induction at 60 h, 500 µM: 0.85
[7]; [8]
  Cyp3a11 fold induction, Large Intestine: 0.5 fold
  Cyp3a11 fold induction, Liver: 0.51 fold
  Cyp3a11 fold induction, Small Intestine: 0.81 fold
  mdr1 fold induction, Large Intestine: 2.03 fold
  mdr1 fold induction, Liver: distinct increase and 4.6 fold and 5.65 fold and 2.73 fold
  mdr1 fold induction, Small Intestine: 1.7 fold and 2.02 fold
[7]; Large Intestine
  mdr1 fold expression: 2.55 fold
[7]; Liver
  Cyp3a11 fold expression: 2.01 fold and 1.78 fold and 1.23 fold
  mdr1 fold expression: 0.93 fold and 1.05 fold and 1.28 fold
[7]; Small Intestine
  Cyp3a11 fold expression: 3.71 fold and 3.81 fold and 4.42 fold
  mdr1 fold expression: 1.46 fold and 1.56 fold and 1.59 fold
